Source: patent US9568467B2, “Inhibitors of micro-RNAs for use for preventing and/or attenuating skin ageing” (CHANEL PARFUMS BEAUTE, priority 2012, dated 2017)

What was measured:
Format in all cases: cell-based
[1] = test system: miR-134; test: Relative quantification of miR-134 level by Real Time PCR in treated or transfected fibroblasts; conditions: primary human fibroblasts, 48 hours treatment, concentration indicated in FIG. 12 (not given); control = 1.00±0.01
Method: (§1) Neonatal Human Primary Dermal Fibroblasts (HDFn, Cascade, Invitrogen, Carlsbad, Calif., USA) were cultured in 106 medium added with LSGS growth supplements (Cascade). Cells were passaged usually once a week, at each passage the harvested cells number and seeded cell number were recorded in order to calculate the population doublings occurring between passages and the population doubling time. At each passage different aliquots of the cells were harvested to extract in triplicate RNA and proteins and an aliquot was submitted to senescence activated β-galactosidase staining in order to assay the senescent or non-senescent state of the cells. […]
(§2) Total RNA from cells was isolated using mirVana mirRNA Isolation Kit (Ambion) by following the manufacturer's protocol for total RNA extraction. Total RNA was quantified using a NanoDrop Spectophotometer (Thermo Scientific, Delaware, USA) and RNA quality was controlled on an agarose gel. […] The expression of each gene and miR was defined from the threshold cycle (Ct), and relative expression levels were calculated by using the 2-ΔΔCt method after normalization with reference to the expression of the housekeeping gene U18.

[2] = test system: miR-152; test: Relative quantification of miR-152 level by Real Time PCR in treated or transfected fibroblasts; conditions: primary human fibroblasts, 48 hours treatment, concentration indicated in FIG. 13 (not given); control = 1.00±0.01
Method: as §1, §2

[3] = test system: primary human fibroblasts; test: Cell proliferation, BrdU pulse and flow cytometry after transfection; conditions: 96 hours after transfection, 3 h BrdU pulse; negative control 26%
Method: (§3) Neonatal Human Primary Dermal Fibroblasts (HDFn, Cascade, Invitrogen, Carlsbad, Calif., USA) were cultured in 106 medium added with LSGS growth supplements (Cascade). Cells were passaged usually once a week, at each passage the harvested cells number and seeded cell number were recorded in order to calculate the population doublings occurring between passages and the population doubling time. At each passage different aliquots of the cells were harvested to extract in triplicate RNA and proteins and an aliquot was submitted to senescence activated β-galactosidase staining in order to assay the senescent or non-senescent state of the cells.
(§4) Human primary fibroblasts were transfected with human pre-miR 134, anti-miR-134, pre-miR-152, anti-miR-152 and scramble sequence as negative control (Ambion, Tex., USA) using the Lipofecatmine RNAimax transfection reagent (Invitrogen) according to manufacturer protocols. 24 hrs after transfection, the medium was removed and replaced with fresh medium.
Methods used to evaluate cell proliferation are generally based on incorporation of thymidine analogues such as 3H thymidine or bromodeoxyuridine (BrdU) during DNA synthesis. […] Cell cycle was analysed using a FACS Calibur flow cytometer (BD Biosciences, San Jose, Calif., USA). Fifteen thousand events were evaluated using the Cell Quest (BD) and Modfit LT (Verity Software; BD) programs.

[4] = test system: ITGA9 mRNA; test: Relative quantification of ITGA9 mRNA level by Real Time PCR after transfection; conditions: human dermal fibroblasts, 96 hours after transfection
Method: as §1, §2

[5] = test system: ITGA5 mRNA; test: Relative quantification of ITGA5 mRNA level by Real Time PCR after transfection; conditions: human dermal fibroblasts, 96 hours after transfection
Method: as §1, §2

[6] = test system: ITGA5; test: Western blot of ITGA5 protein level after transfection; conditions: human fibroblasts after transfection; β-Actin loading control
Method: as §3, §4
Total cell extracts were resolved on a SDS polyacrylamide gel, blotted on a Hybond P PVDF membrane (G&E Healthcare, UK). […]

| Molecule | expression of miR-134 in treated cells (relative quantification) [1] | expression of miR-152 in treated cells (relative quantification) [2] | percentage of BrdU positive primary human fibroblasts [3] [%] | ITGA9 mRNA level reduction [4] [%] | other results |
| --- | --- | --- | --- | --- | --- |
| C[C@@H]1O[C@@H](O[C@@H]2[C@@H](O)[C@H](OCCc3ccc(O)c(O)c3)O[C@H](CO)[C@H]2OC(=O)/C=C/c2ccc(O)c(O)c2)[C@H](O)[C@H](O)[C@H]1O [Compound 5, Verbascoside] | 0.734±0.05 |  |  |  |  |
| O.Oc1cc(O)c2c(c1)O[C@H](c1ccc(O)c(O)c1)[C@@H](O)C2 [Compound 2, Catechine Hydrate] |  | 0.769±0.03 |  |  |  |
| miR-134: human pre-miR 134 (Ambion) transfected into fibroblasts; mature miR-134 SEQ ID No. 1 ugugacugguugaccagagggg (UGUGACUGGUUGACCAGAGGGG; delivered as commercial pre-miR precursor, further chemistry not given here; listed as Homo sapiens) |  |  | 19 | 20 |  |
| miR-152: human pre-miR-152 (Ambion) transfected into fibroblasts; mature miR-152 SEQ ID No. 2 UCAGUGCAUGACAGAACUUGG (delivered as commercial pre-miR precursor, further chemistry not given here; listed as Homo sapiens) |  |  | 18 | 40 | ITGA5 mRNA level reduction [5]: 30%; ITGA5 protein level (Western blot) [6]: significant decrease |
| O=C(O[C@@H]1Cc2c(O)cc(O)cc2O[C@@H]1c1cc(O)c(O)c(O)c1)c1cc(O)c(O)c(O)c1 [Compound 4, Epigallocatechine Gallate] | 0.603±0.03 | 0.804±0.05 |  |  |  |
